Values joined by “and” are separate entries in the source; they are usually repeats but may differ in a detail not shown here. Identical values can stand only once.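 Five compound concentrations were applied to cells in 96-well plates for 48 hours; endpoints were derived by simple linear interpolation of the resulting dose-response curve. GI50 is the concentration that inhibits growth by half. TGI marks complete inhibition of growth.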

This note sets out measurements from PubChem BioAssay (NCI).

Among the test systems are A549 NSCLC; CCRF-CEM leukemia; KM12 colon; LOX IMVI melanoma; M14 melanoma; MALME-3M melanoma; MDA-MB-435; MOLT-4 leukemia; NCI-H23 lung; SK-MEL-28 melanoma.
What all share (test): inhibition of tumour cell growth, NCI panel, 48 h

`COc1ccc(Nc2cc(C)nc(NCc3ccccc3)n2)cc1`: the GI50 with A549 NSCLC is 6.53 µM; in the assay on CCRF-CEM leukemia, 3.06 µM; in the assay on KM12 colon, 6.2 µM; in the assay on LOX IMVI melanoma it was 2.2 µM; with M14 melanoma it was 2.11 µM; in the assay with MALME-3M melanoma, 2.36 µM. Further, the GI50 is 3.16 µM in the assay with MDA-MB-435, 5.5 µM in the assay on MOLT-4 leukemia, 3.55 µM in the assay on NCI-H23 lung and 2.39 µM in the assay with SK-MEL-28 melanoma. For the same compound, the TGI with A549 NSCLC was determined as 24.7 µM; in the assay with CCRF-CEM leukemia, 23.7 µM; in the assay on KM12 colon it was 21.9 µM; in the assay with LOX IMVI melanoma, 6.38 µM; with M14 melanoma, 7.52 µM; in the assay with MALME-3M melanoma it was 9.2 µM. The TGI came to 13 µM in the assay on MDA-MB-435, 26.9 µM in the assay with MOLT-4 leukemia, 16.3 µM in the assay with NCI-H23 lung and 6.97 µM in the assay on SK-MEL-28 melanoma.

Consider `O=[N+]([O-])c1ccc(C2=Nn3c(nnc3-c3ccc(Cl)cc3)SC2)o1`, for which the TGI with A549 NSCLC was found to be 48.6 µM; with CCRF-CEM leukemia, 7.54 µM; with KM12 colon, 27.6 µM; with LOX IMVI melanoma, 12.2 µM; in the assay on M14 melanoma it was 14.3 µM; with MALME-3M melanoma, 12.4 µM. For the same compound, the TGI in the assay with MDA-MB-435 is 4.39 µM; in the assay on MOLT-4 leukemia, 8.59 µM; in the assay with NCI-H23 lung, 18.6 µM; with SK-MEL-28 melanoma, 28 µM.

On to `CC1=CCCC2C1(C)CCC(C)C2(C)Cc1cc(O)ccc1O` (centres undefined), for which the GI50 with A549 NSCLC is 7.14 µM; in the assay on CCRF-CEM leukemia, 3.76 µM; with KM12 colon, 5.16 µM; in the assay on LOX IMVI melanoma it was 3.6 µM; in the assay on MALME-3M melanoma, 14.7 µM; in the assay on NCI-H23 lung, 7.38 µM. The TGI in the assay on A549 NSCLC was 20.5 µM and 21.6 µM; with CCRF-CEM leukemia it was > 37.1 µM and 5.88 µM; in the assay on KM12 colon, 18.7 µM; in the assay with LOX IMVI melanoma, 16.2 µM and 16.3 µM; in the assay with M14 melanoma, 29.5 µM; with MALME-3M melanoma it was 29.2 µM and 35.7 µM. Further, the TGI is 27 µM in the assay on MDA-MB-435; 21 µM and 8.36 µM in the assay on MOLT-4 leukemia; 20.4 µM and 17.5 µM in the assay with NCI-H23 lung; 29.9 µM and 31.1 µM with SK-MEL-28 melanoma.

On to `C[C@]12CC[C@@H]3c4cc(O)c(O)cc4CC[C@H]3[C@@H]1CC[C@@H]2O`, for which the GI50 is 7.16 µM in the assay on A549 NSCLC; 1.67 µM in the assay on CCRF-CEM leukemia; 8.23 µM in the assay with KM12 colon; 5.97 µM in the assay with LOX IMVI melanoma; 1.35 µM in the assay with M14 melanoma; 0.708 µM in the assay with MALME-3M melanoma. Moreover, the GI50 in the assay on MDA-MB-435 is 0.286 µM; in the assay on MOLT-4 leukemia it was 3.51 µM; with NCI-H23 lung, 5.31 µM; in the assay with SK-MEL-28 melanoma, 5.47 µM. The TGI with A549 NSCLC is more than 82.4 µM; in the assay with CCRF-CEM leukemia, 20.2 µM; in the assay with KM12 colon it was 22.3 µM; in the assay with LOX IMVI melanoma it was 23.6 µM; with M14 melanoma, more than 100 µM; with MALME-3M melanoma, 44.4 µM. Besides, the TGI in the assay on MDA-MB-435 was 1.1 µM; in the assay on MOLT-4 leukemia, 77.2 µM; in the assay with NCI-H23 lung, more than 83.7 µM; in the assay with SK-MEL-28 melanoma, more than 100 µM.

For `COc1ccc(Cn2cc3c(c2-c2ccccc2)CCc2cnoc2-3)cc1OC`, the GI50 in the assay on A549 NSCLC was 0.875 µM; with CCRF-CEM leukemia, 1.78 µM; with KM12 colon, 0.487 µM; in the assay on LOX IMVI melanoma, 0.819 µM; in the assay with M14 melanoma, 0.566 µM; in the assay with MDA-MB-435, 0.244 µM. For the same compound, the GI50 in the assay with MOLT-4 leukemia is 1.05 µM; with NCI-H23 lung, 1.46 µM; in the assay on SK-MEL-28 melanoma, 26.3 µM. Moreover, the TGI in the assay with A549 NSCLC was more than 100 µM; with CCRF-CEM leukemia, more than 100 µM; in the assay on KM12 colon it was more than 100 µM; with LOX IMVI melanoma it was more than 100 µM; with M14 melanoma, more than 100 µM; with MDA-MB-435, 0.864 µM. Also, the TGI in the assay with MOLT-4 leukemia, in the assay with NCI-H23 lung and with SK-MEL-28 melanoma was more than 100 µM each time.

For `CCCCCCCCCCCC(=O)N1CCN(C(C)=O)CC1`, the GI50 was 28 µM in the assay with A549 NSCLC; 18.7 µM with CCRF-CEM leukemia; 25 µM in the assay with KM12 colon; 34.4 µM in the assay on LOX IMVI melanoma; 17.6 µM in the assay with M14 melanoma; 26.9 µM with MALME-3M melanoma. In addition, the GI50 was 20.4 µM in the assay on MDA-MB-435, 20.8 µM in the assay with MOLT-4 leukemia and 19.5 µM in the assay with NCI-H23 lung. Besides, the TGI is more than 100 µM in the assay with A549 NSCLC; 40.6 µM in the assay on CCRF-CEM leukemia; 56.5 µM with KM12 colon; more than 100 µM in the assay on LOX IMVI melanoma; 33 µM with M14 melanoma; 52.9 µM in the assay on MALME-3M melanoma. The results for the TGI in the assay on MDA-MB-435, with MOLT-4 leukemia and in the assay with NCI-H23 lung were 40.9 µM, 47.8 µM and 40.8 µM, respectively.

As for `N#Cc1c(N)n2c(nc1=Nc1ccc(Cl)cc1)sc1cc(Cl)ccc12`, the GI50 was 4.21 µM in the assay with CCRF-CEM leukemia; 3.22 µM in the assay with KM12 colon; 13.5 µM in the assay with LOX IMVI melanoma; 6.59 µM and 5.9 µM in the assay on M14 melanoma; 6.35 µM and 14.8 µM in the assay with MALME-3M melanoma; 6.18 µM in the assay on MDA-MB-435. Besides, the GI50 in the assay with MOLT-4 leukemia is 4.42 µM; in the assay on SK-MEL-28 melanoma, 5.74 µM and 2.8 µM. Moreover, the TGI with LOX IMVI melanoma is more than 100 µM; with M14 melanoma, more than 100 µM; in the assay on MALME-3M melanoma, more than 100 µM; in the assay with MDA-MB-435, more than 100 µM; with NCI-H23 lung, 42.4 µM; in the assay with SK-MEL-28 melanoma, more than 100 µM.

Regarding `C=C1C(=O)O[C@H]2C[C@@H]1CC/C(C)=C/CC/C(C)=C/CC[C@@]2(C)O`, the GI50 with A549 NSCLC was more than 100 µM; with CCRF-CEM leukemia, 16.5 µM; with KM12 colon it was more than 100 µM; with LOX IMVI melanoma it was 17.4 µM; with M14 melanoma it was 44.4 µM; in the assay on MDA-MB-435, 57.5 µM. The GI50 was 24.5 µM with MOLT-4 leukemia, 7.51 µM with NCI-H23 lung and 37.2 µM in the assay on SK-MEL-28 melanoma. The TGI in the assay on A549 NSCLC was more than 100 µM; in the assay with CCRF-CEM leukemia, 38.9 µM; in the assay with KM12 colon, more than 100 µM; with LOX IMVI melanoma, 31.5 µM; in the assay with M14 melanoma, more than 100 µM; in the assay with MDA-MB-435, more than 100 µM. In addition, the TGI with MOLT-4 leukemia, in the assay on NCI-H23 lung and in the assay on SK-MEL-28 melanoma was more than 100 µM in each case.
